In patent US6620811B2, “Isonicotin- and nicotinamide derivatives of benzothiazoles” (Hoffmann-La Roche Inc., priority 2001, dated 2003):

How the values were obtained:
[1] = molecular target: T1, human adenosine A2A receptor (Homo sapiens, UniProt P29274); test: Human adenosine A2A receptor [3H]-SCH-583261 binding assay (SPA, CHO cell membranes); conditions: [3H]-SCH-583261 1 nM; membranes of CHO cells expressing the recombinant receptor; Ki by Cheng-Prussoff equation; read-out: hA2 (pKi) (converted)
T1 construct: expressed in transfected cells; host or cells: CHO cells, semliki forest virus expression system; membrane preparation
T1 sequence (P29274 whole entry): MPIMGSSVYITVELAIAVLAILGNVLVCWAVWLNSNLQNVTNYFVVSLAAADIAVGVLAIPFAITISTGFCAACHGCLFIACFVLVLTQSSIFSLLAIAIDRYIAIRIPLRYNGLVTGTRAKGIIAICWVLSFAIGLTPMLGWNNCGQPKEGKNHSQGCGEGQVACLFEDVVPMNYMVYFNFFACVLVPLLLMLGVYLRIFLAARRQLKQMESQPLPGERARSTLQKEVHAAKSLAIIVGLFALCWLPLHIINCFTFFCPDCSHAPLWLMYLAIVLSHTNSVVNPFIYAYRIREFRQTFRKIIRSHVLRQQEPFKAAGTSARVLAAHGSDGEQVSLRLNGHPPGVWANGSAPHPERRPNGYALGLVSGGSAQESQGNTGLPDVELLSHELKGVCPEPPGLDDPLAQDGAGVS
Protocol: Human Adenosine A2A Receptor
The human adenosine A2A receptor was recombinantly expressed in chinese hamster ovary (CHO) cells using the semliki forest virus expression system. Cells were harvested, washed twice by centrifugation, homogenised and again washed by centrifugation. The final washed membrane pellet was suspended in a Tris (50 mM) buffer containing 120 mM NaCl, 5 mM KCl, 2 mM CaCl2 and 10 mM MgCl2 (pH 7.4) (buffer A). The [^3H]-SCH-583261 (Dionisotti et al., 1997, Br J Pharmacol 121, 353; 1 nM) binding assay was carried out in 96-well plates in the presence of 2.5 μg of membrane protein, 0.5 mg of Ysi-poly-1-lysine SPA beads and 0.1 U adenosine deaminiase in a final volume of 200 μl of buffer A. Non-specific binding was defined using xainthine amine congener (XAC; 2 μM). Compounds were tested at 10 concentrations from 10 μM-0.3 nM. All assays were conducted in duplicate and repeated at least two times. Assay plates were incubated for 1 hour at room temperature before centrifugation and then bound ligand determined using a Packard Topcount scintillation counter. IC50 values were calculated using a non-linear curve fitting program and Ki values calculated using the Cheng-Prussoff equation.

Compound	Ki [1] [nM]	melting point [°C]
COc1ccc(N2CCOCC2)c2sc(NC(=O)c3ccnc(OCCN4CCOCC4)c3)nc12 [Example 87, N-(4-Methoxy-7-morpholin-4-yl-benzothiazol-2-yl)-2-(2-morpholin-4-yl-ethoxy)-isonicotinamide]	0.851	–
COc1ccc(N2CCOCC2)c2sc(NC(=O)c3ccnc(NC4CCCC4)c3)nc12 [Example 89, 2-Cyclopentylamino-N-(4-methoxy-7-morpholin-4-yl-benzothiazol-2-yl)-isonicotinamide]	1.48	–
COc1ccc(N2CCOCC2)c2sc(NC(=O)c3ccnc(NC4CCC4)c3)nc12 [Example 90, 2-Cyclobutylamino-N-(4-methoxy-7-morpholin-4-yl-benzothiazol-2-yl)-isonicotinamide]	1.74	–
COc1ccc(N2CCOCC2)c2sc(NC(=O)c3ccnc(OCCNC(C)=O)c3)nc12 [Example 92, 2-(2-Acetylamino-ethoxy)-N-(4-methoxy-7-morpholin-4-yl-benzothiazol-2-yl)-isonicotinamide]	1.58	–
COc1ccc(N2CCOCC2)c2sc(NC(=O)c3ccnc(N(C)C4CCCCC4)c3)nc12 [Example 95, 2-(Cyclohexyl-methyl-amino)-N-(4-methoxy-7-morpholin-4-yl-benzothiazol-2-yl)-isonicotinamide]	1.91	–
COc1ccc(N2CCOCC2)c2sc(NC(=O)c3ccnc(N(C)Cc4ccccc4)c3)nc12 [Example 96, 2-(Benzyl-methyl-amino)-N-(4-methoxy-7-morpholin-4-yl-benzothiazol-2-yl)-isonicotinamide]	1.62	–
COc1ccc(N2CCOCC2)c2sc(NC(=O)c3ccnc(N(C)CCc4ccccc4)c3)nc12 [Example 97, N-(4-Methoxy-7-morpholin-4-yl-benzothiazol-2-yl)-2-(methyl-phenethyl-amino)-isonicotinamide]	2.24	–
COc1ccc(N2CCOCC2)c2sc(NC(=O)c3ccnc(N(C)CCN(C)C)c3)nc12 [Example 99, 2-[(2-Dimethylamino-ethyl)-methyl-amino]-N-(4-methoxy-7-morpholin-4-yl-benzothiazol-2-yl)-isonicotinamide]	0.603	–
COc1ccc(N2CCCCC2)c2sc(NC(=O)c3ccnc(N4CCN(C)CC4)c3)nc12 [Example 100, N-(4-Methoxy-7-piperidin-1-yl-benzothiazol-2-yl)-2-(4-methyl-piperazin-1-yl)-isonicotinamide]	1.55	–
COc1cc(C(=O)Nc2nc3c(OC)ccc(-c4ccccc4)c3s2)ccn1 [Example 101, 2-Methoxy-N-(4-methoxy-7-phenyl-benzothiazol-2-yl)-isonicotinamide]	1.26	–
COc1ccc(N2CCOCC2)c2sc(NC(=O)c3ccnc(CN4CCC(O)CC4)c3)nc12 [Example 102, 2-(4-Hydroxy-piperidin-1-yl-methyl)-N-(4-methoxy-7-morpholin-4-yl-benzothiazol-2-yl)-isonicotinamide]	2	125
COC[C@@H]1CCCN1Cc1cc(C(=O)Nc2nc3c(OC)ccc(N4CCOCC4)c3s2)ccn1 [Example 105, (S)-2-(2-Methoxymethyl-pyrrolidin-1-ylmethyl)-N-(4-methoxy-7-morpholin-4-yl-benzothiazol-2-yl)-isonicotinamide]	–	110 to 113
COC[C@H]1CCN(Cc2cc(C(=O)Nc3nc4c(OC)ccc(N5CCOCC5)c4s3)ccn2)C1 [Example 106, (S)-2-(3-Methoxymethyl-pyrrolidin-1-ylmethyl)-N-(4-methoxy-7-morpholin-4-yl-benzothiazol-2-yl)-isonicotinamide]	–	93 to 96
COc1ccc(N2CCOCC2)c2sc(NC(=O)c3ccnc(Cn4ccnc4C)c3)nc12 [Example 107, N-(4-Methoxy-7-morpholin-4-yl-benzothiazol-2-yl)-2-(2-methyl-imidazol-1-ylmethyl)-isonicotinamide]	–	264 to 265

Next, values leading:

Ki [1] [nM]	melting point [°C]	Compound
0.501	–	COc1ccc(N2CCOCC2)c2sc(NC(=O)c3ccnc(OCCN(C)C)c3)nc12 [Example 86, 2-(2-Dimethylamino-ethoxy)-N-(4-methoxy-7-morpholin-4-yl-benzothiazol-2-yl)-isonicotinamide]
0.457	–	COc1ccc(N2CCOCC2)c2sc(NC(=O)c3ccnc(NCCN(C)C)c3)nc12 [Example 88, 2-(2-Dimethylamino-ethylamino)-N-(4-methoxy-7-morpholin-4-yl-benzothiazol-2-yl)-isonicotinamide]
1.07	–	CCCNc1cc(C(=O)Nc2nc3c(OC)ccc(N4CCOCC4)c3s2)ccn1 [Example 93, N-(4-Methoxy-7-morpholin-4-yl-benzothiazol-2-yl)-2-propylamino-isonicotinamide]
1.2	–	CCCN(C)c1cc(C(=O)Nc2nc3c(OC)ccc(N4CCOCC4)c3s2)ccn1 [Example 94, N-(4-Methoxy-7-morpholin-4-yl-benzothiazol-2-yl)-2-(methyl-propyl-amino)-isonicotinamide]
1.58	158 to 159	CCSCc1cc(C(=O)Nc2nc3c(OC)ccc(N4CCOCC4)c3s2)ccn1 [Example 103, 2-Ethylsulfanylmethyl-N-(4-methoxy-7-morpholin-4-yl-benzothiazol-2-yl)-isonicotinamide]
3.16	159 to 160	CCOCCN(C)Cc1cc(C(=O)Nc2nc3c(OC)ccc(N4CCOCC4)c3s2)ccn1 [Example 104, 2-{[(2-Ethoxy-ethyl)-methyl-amino]-methyl}-N-(4-methoxy-7-morpholin-4-yl-benzothiazol-2-yl)-isonicotinamide]
–	228 to 230	COc1ccc(N2CCOCC2)c2sc(NC(=O)c3ccnc(CN(C)C(C)=O)c3)nc12 [Example 108, 2-[(Acetyl-methyl-amino)-methyl]-N-(4-methoxy-7-morpholin-4-yl-benzothiazol-2-yl)-isonicotinamide]
